{"source": "patent US9937184B2", "about": "(THEOCORP HOLDING COMPANY, LLC, priority 2013, dated 2018)", "origin": "cited, not measured here", "key": {"[1]": {"settings": "in vivo"}, "[2]": {"system": "UMR 106-01 rat obsteoblast-like cells", "settings": "prior art results (Kamagata-Kiyoura 1999)"}}, "data": [{"smiles": "Cn1cnc2c1c(=O)[nH]c(=O)n2C", "note": "[Theobromine, 3,7-dimethyl-2,3,6,7-tetrahydro-1H-purine-2,6-dione]", "values": [{"measurement": "plasma half-life (t1/2) in the bloodstream", "setting": "[1]", "value": "six"}]}, {"smiles": "Cn1c(=O)c2c(ncn2C)n(C)c1=O", "note": "[caffeine, 1,3,7-trimethylxanthine]", "values": [{"measurement": "proliferation of osteoblast-like cells (UMR 106-01)", "setting": "[2]", "value": "inhibits cell proliferation"}]}]}
